IC50 data for twelve compounds are collected here from patent publication EP4582426A1, “PAN-KRAS INHIBITOR COMPOUND” (Adlai Nortye Biopharma Co., Ltd., priority 2022, dated 2024).

One test deals with SW480 (G12V). Put plainly: In vitro cell proliferation inhibition test (CellTiter-Glo Luminescent Cell Viability Assay). The format is cell-based. To be noted: SW480 cell line, Large intestine, Colon, KRAS (p.G12V), cells and compounds co-incubated 72 hours. An excerpt:
(§1) Due to the diversity of RAS mutations and in order to evaluate the activity of compounds in different RAS mutant cell lines, we selected KRAS^WT, KRAS^G12C, KRAS^G12D), KRAS^G12V and BRAF mutant cell lines (see the table below) for in vitro activity evaluation and screening of compounds .
(§2) Experimental protocol: CellTiter-Glo® Cell Luminescent Viability Assay (Promega)
(§3) According to the doubling time of different cell lines, different numbers of cells (1000-5000 cells/well) were inoculated into 96-well plates containing 180 µl of the corresponding medium, and cultured overnight in a 37°C cell incubator containing 5% CO2. On the second day, the compound to be tested was pre-diluted 3-fold with the medium, the highest concentration was 100 µM, and there were 10 concentration gradients in total; then 20 µl of the medium containing different concentrations of the compound was added to the cells in the 96-well plate to ensure the final concentration of the compound to be up to 10 µM, with 10 concentration gradients of 3-fold dilutions. After co-incubating cells and compounds for 72 hours, the 96-well plate was taken out of the incubator, placed at room temperature for 30 minutes, and then 25 µl CellTiter-Glo® Reagent was added to each well to mix well, and incubated at room temperature for 10 minutes, and then 100 µl of the sample was transferred to a white 96-well plate (OptiPlateTM-96, PerkinElmer), the […] signal value was read using a multi-functional microplate reader (SpectraMax® i3x, Molecular devices). Subsequently, the signal value was standardized, and the four-parameter fitting regression equation was used for curve fitting to calculate the half maximal inhibitory concentration (IC50) of the compound on the cell line. Table 3: Antiproliferative activity of compounds of the present invention on KRAS cell mutants
(Cellular ATP, detected with luciferase, serves as a proxy for viable cell number.)

The next test deals with AsPC-1 (G12D). The test is described as above. The format is cell-based. To be noted: AsPC-1 cell line, Pancreas, KRAS (p.G12D), cells and compounds co-incubated 72 hours.
From the text: as §1, §2, §3

In general, IC50 refers to the concentration at which inhibition is half-maximal.

For `CCn1c(-c2cc(C#CCN3CCOC[C@H]3C)cnc2[C@H](C)OC)c2c3cc(ccc31)-c1csc(n1)C[C@H](NC(=O)[C@H]1C[C@@H]1C)C(=O)N1CCC[C@H](N1)C(=O)OCC(C)(C)C2` [Example 15, (1S,2S)-N-((63S,4S,Z)-11-ethyl-12-(2-((S)-1-methoxyethyl)-5-(3-((R)-3-methylmorpholino)prop-1-yn-1-yl)pyridin-3-yl)-10,10-dimethyl-5,7-dioxo-61,62,63,64,65,66-hexahydro-11H-8-oxa-2 (4,2)-thiazola-1(5,3)-indola-6(1,3)-pyridazinacyclonecaphane-4-yl)-2-methylcyclopropane-1-carboxamide], the IC50 with SW480 (G12V) turned out to be 2.2 nM; in the test with SW480 (G12V) (listed as 15'), 1060 nM; in the test with AsPC-1 (G12D), 1.7 nM; with AsPC-1 (G12D) (listed as 15'), 1880 nM.
Take “(1S,2S)-N-((6^3S,4S,Z)-1^1-ethyl-1^2-(5-((2-(ethylamino)pyrimidin-5-yl)ethynyl)-2-((S)-1-methoxyethyl)pyridin-3-yl)-10,10-dimethyl-5,7-dioxo-6^1,6^2,6^3,6^4,6^5,6^6-hexahydro-1^1H-8-oxa-2(4,2)-thiazola-1(5,3)-indola-6(1,3)-pyridazinacycloundecaphane-4-yl)-2-methylcyclopropane-1-carboxamide [Example 42]”: the values for the IC50 with SW480 (G12V) and with AsPC-1 (G12D) were 6.9 nM and 22.2 nM, respectively.
For “(1r,2R,3S)-N-((6^3S,4S,Z)-1^1-ethyl-1^2-(5-(3-((S)-hexahydropyrazino[2,1-c][1,4]oxazin-8(1H)-yl)prop-1-yn-1-yl)-2-((S)-1-methoxyethyl)pyridin-3-yl)-10,10-dimethyl-5,7-dioxo-6^1,6^2,6^3,6^4,6^5,6^6-hexahydro-1^1H-8-oxa-2(4,2)-thiazola-1(5,3)-indola-6(1,3)-pyridazinacycloundecaphane-4-yl)-2,3-dimethylcyclopropane-1-carboxamide [Example 40]” the same measures were 1.5 nM and 1.35 nM.
On to `CCn1c(-c2cc(C#CC3CN(C)C3)cnc2C(C)OC)c2c3cc(ccc31)-c1csc(n1)CC(NC(=O)C1CC1C)C(=O)N1CCCC(N1)C(=O)OCC(C)(C)C2` [Example 12, (1S,2S)-N-((63S,4S,Z)-11-ethyl-12-(2-((S)-1-methoxyethyl)-5-((1-methylazetidin-3-yl)ethynyl)pyridin-3-yl)-10,10-dimethyl-5,7-dioxo-61,62,63,64,65,66-hexahydro-11H-8-oxa-2(4,2)-thiazola-1(5,3)-indola-6(1,3)-pyridazinacyclonecaphane-4-yl)-2-methylcyclopropane-1-carboxamide], for which the IC50 with SW480 (G12V) is 33.9 nM; in the test on SW480 (G12V) (listed as 12') it was 1790 nM; with AsPC-1 (G12D), 11.8 nM; in the test on AsPC-1 (G12D) (listed as 12') it was 443 nM.
With `CCn1c(-c2cc(C#Cc3cnc(N)cn3)cnc2[C@H](C)OC)c2c3cc(ccc31)-c1csc(n1)C[C@H](NC(=O)[C@H]1C[C@@H]1C)C(=O)N1CCC[C@H](N1)C(=O)OCC(C)(C)C2` [Example 35, (1S,2S)-N-((6^3S,4S,Z)-1^2-(5-((5-aminopyrazin-2-yl)ethynyl)-2-((S)-1-methoxyethyl)pyridin-3-yl)-1^1-ethyl-10,10-dimethyl-5,7-dioxo-6^1,6^2,6^3,6^4,6^5,6^6-hexahydro-1^1H-8-oxa-2(4,2)-thiazola-1(5,3)-indola-6(1,3)-pyridazinacycloundecaphane-4-yl)-2-methylcyclopropane-1-carboxamide], the IC50 in the test on SW480 (G12V) (Homo sapiens) was 37 nM; with AsPC-1 (G12D) (Homo sapiens, ASPC1), 56 nM.
Regarding `CCn1c(-c2cc(C#CC3CN(C)CCO3)cnc2C(C)OC)c2c3cc(ccc31)-c1csc(n1)CC(NC(=O)C1CC1C)C(=O)N1CCCC(N1)C(=O)OCC(C)(C)C2` (single isomer, unassigned) [Example 8], the IC50 with SW480 (G12V) was 18.9 nM; in the test with SW480 (G12V) (listed as 8'), 2030 nM; in the test with AsPC-1 (G12D) it was 17.9 nM; in the test on AsPC-1 (G12D) (listed as 8') it was 3870 nM.
Take `CCn1c(-c2cc(C#CCN3CCP(C)(=O)CC3)cnc2[C@H](C)OC)c2c3cc(ccc31)-c1csc(n1)C[C@H](NC(=O)[C@H]1C[C@@H]1C)C(=O)N1CCC[C@H](N1)C(=O)OCC(C)(C)C2` [Example 49, (1S,2S)-N-((6^3S,4S,Z)-1^1-ethyl-1^2-(2-((S)-1-methoxyethyl)-5-(3-(4-methyl-4-oxido-1,4-azaphosphinan-1-yl)prop-1-yn-1-yl)pyridin-3-yl)-10,10-dimethyl-5,7-dioxo-6^1,6^2,6^3,6^4,6^5,6^6-hexahydro-1^1H-8-oxa-2(4,2)-thiazola-1(5,3)-indola-6(1,3)-pyridazinacycloundecaphane-4-yl)-2-methylcyclopropane-1-carboxamide]: the IC50 with SW480 (G12V) came to 9.2 nM; with AsPC-1 (G12D) it was 7.5 nM.
`CCn1c(-c2cc(C#C[C@@H]3COCCN3C)cnc2[C@H](C)OC)c2c3cc(ccc31)-c1csc(n1)C[C@H](NC(=O)[C@H]1C[C@@H]1C)C(=O)N1CCC[C@H](N1)C(=O)OCC(C)(C)C2` [Example 7, (1S,2S)-N-((63S,4S,Z)-11-ethyl-12-(2-((S)-1-methoxyethyl)-5-(((R)-4-methylmorpholin-3-yl)ethynyl)pyridin-3-yl)-10,10-dimethyl-5,7-dioxo-61,62,63,64,65,66-hexahydro-11H-8-oxa-2(4,2)-Thiazola-1(5,3)-indola-6(1,3)-pyridazinacyclonecaphane-4-yl)-2-methylcyclopropane-1-carboxamide]: the IC50 with SW480 (G12V) is 4.6 nM; with SW480 (G12V) (listed as 7'), 830 nM; with AsPC-1 (G12D) it was 5.1 nM; in the test on AsPC-1 (G12D) (listed as 7') it was 2640 nM.
Take “(1S,2S)-N-((6^3S,4S,Z)-1^1-ethyl-1^2-(5-(((R)-4-(2-hydroxyethyl)morpholin-3-yl)ethynyl)-2-((S)-1-methoxyethyl)pyridin-3-yl)-10,10-dimethyl-5,7-dioxo-6^1,6^2,6^3,6^4,6^5,6^6-hexahydro-1^1H-8-oxa-2(4,2)-thiazola-1(5,3)-indola-6(1,3)-pyridazinacycloundecaphane-4-yl)-2-methylcyclopropane-1-carboxamide [Example 33]”: the 50% inhibitory concentration (IC50) in the test with SW480 (G12V) came out at 6.5 nM; with AsPC-1 (G12D), 2.9 nM.
Consider `CCn1c(-c2cc(C#CCN3CCOCC3)cnc2[C@H](C)OC)c2c3cc(ccc31)-c1csc(n1)C[C@H](NC(=O)[C@H]1C[C@@H]1C)C(=O)N1CCC[C@H](N1)C(=O)OCC(C)(C)C2` (single isomer, unassigned) [Example 1], for which the IC50 amounted to 1.02 nM in the test with SW480 (G12V), 343 nM in the test with SW480 (G12V) (listed as 1'), 0.92 nM in the test on AsPC-1 (G12D) and 582 nM in the test with AsPC-1 (G12D) (listed as 1').
Consider `CCn1c(-c2cc(C#CCN(C)C)cnc2C(C)OC)c2c3cc(ccc31)-c1csc(n1)CC(NC(=O)C1C(C)C1C)C(=O)N1CCCC(N1)C(=O)OCC(C)(C)C2` [Example 58, (1r,2R,3S)-N-((6^3S,4S,Z)-1^2-(5-(3-(dimethylamino)prop-1-yn-1-yl)-2-((S)-1-methoxyethyl)pyridin-3-yl)-1^1-ethyl-10,10-dimethyl-5,7-dioxo-6^1,6^2,6^3,6^4,6^5,6^6-hexahydro-1^1H-8-oxa-2(4,2)-thiazola-1(5,3)-indola-6(1,3)-pyridazinacycloundecaphane-4-yl)-2,3-dimethylcyclopropane-1-carboxamide], for which the IC50 is 0.24 nM with SW480 (G12V) and 0.7 nM in the test on AsPC-1 (G12D).
Taken in the same sequence, the figures for “(1S,2S)-N-((63S,4S,Z)-1^1-ethyl-1^2-(2-((S)-1-methoxyethyl)-5-((1-methylpiperidin-4-yl)ethynyl)pyridin-3-yl)-10,10-dimethyl-5,7-dioxo-6^1,6^2,6^3,6^4,6^5,6^6-hexahydro-1^1H-8-oxa-2(4,2)-thiazola-1(5,3)-indola-6(1,3)-pyridazinacycloundecaphane-4-yl)-2-methylcyclopropane-1-carboxamide [Example 29]” were 2.8 nM and 1.2 nM.
